Measured values published in US9506933B2, “Method of preparing antigen for acquiring anti-hydrophobic peptide antibody” (TOAGOSEI CO., LTD., priority 2011, dated 2016).
Ends that are not written are not given here.

Legend:
Assay type in all cases: physicochemical
[1] = Particle size of FCG24 and FLF23 in 1% Tween 20 suspensions (Countess / dynamic light scattering); conditions: 1% Tween 20 suspension; dynamic light scattering particle size analyser
[2] = Isoelectric point of SPAPP
[3] = Molecular weight distribution of SPAPP aggregates (centrifugation, spin filters, BCA assay)
Protocol: The molecular weight distribution of SPAPP aggregates in the suspension was measured in accordance with the following procedure.
(i) The suspension was centrifuged at 15,000 rpm for five minutes and divided into supernatant and precipitate. This centrifugation causes particles equal to or larger than about 1 μm to precipitate.
(ii) The supernatant was applied to a molecular weight 100,000 cutoff spin filter (Amicon Microcon YM-100) and caused to pass through the filter by centrifugation.
(iii) The flow-through solution of (ii) was applied to a molecular weight 10,000 cutoff spin filter and caused to pass through the filter by centrifugation.
On each stage of the process described above, the protein concentration of the solution was measured by the BCA protein assay (Thermo Fisher Scientific) using BSA as the standard.
The time from suspension of SPAPP in pure water to addition of various surfactants was changed to confirm that the molecular size distribution of aggregates varies depending on the time. For example, in the case of 1% Tween 20, the insoluble fraction (precipitate) was 5% when the surfactants were added immediately after suspension of SPAPP in pure water, 17% when added after 1.5 hours, and 48% when added after 3 hours.

[4] = Test of solubility of peptide SPAPP to various solvents (visual transparency)
Source text: (1) Powdered purified SPAPP was mixed with various solvents at various concentrations to examine solubility.
The term “soluble” used in the following description means a state in which solvent is visually transparent and “insoluble” means a state in which solvent is visually cloudy.

[5] = Molecular size distribution of SPAPP in other nonionic surfactant solutions; conditions: 1% PEG60 dodecyl ether, Triton X-100 or Nonidet P-40; surfactant added immediately or after 90 minutes
Protocol: It was examined whether SPAPP forms high-molecular-weight aggregates in other nonionic surfactant solutions. PEG60 dodecyl ether (Polypure), Triton X-100, and Nonidet P-40 were used as surfactants at 1% in each case. As was the case with the method of Example 2, each of the surfactants was used for preparing SPAPP suspension and, after the size fractionation using centrifugation and spin-type molecular weight cutoff filters, 10% SDS was added to and mixed with each of fractions to the final concentration of 1% to dissolve the aggregates. The peptide concentrations of the fractions were measured by the BCA assay and the molecular weight distribution of SPAPP aggregates were summarized as shown in FIGS. 6A and 6B. […] In the histograms, “Ppt” indicates peptides removed by centrifugation, i.e., precipitate, which is considered to have a size of 1 μm or larger and a molecular weight of several hundred kilodaltons or more. “>100 kDa” indicates 100 kDa or more and “<100 kDa” indicates 100 kDa or less.

## FLFCWILMILVVLTFVVGANVEK (listed as Homo sapiens) [FLF23]
[1]
  particle size: particles with sizes larger than the signals of only the 1% Tween 20 solution were confirmed

## MLPGLALLLLAAWTARA-OH [SPAPP]
[2]
  isoelectric point: 10.9
[3]; 1% Tween 20 added after 1.5 hours in pure water
  insoluble fraction (precipitate): 17%
[3]; 1% Tween 20 added after 3 hours in pure water
  insoluble fraction (precipitate): 48%
[3]; 1% Tween 20 added immediately after suspension of SPAPP in pure water
  insoluble fraction (precipitate): 5%
[4]; 0.1% trifluoroacetic acid (pH 2.0), SPAPP conc. 7.5 mg/ml
  Solubility: Soluble
[4]; 1% Nonidet P40, SPAPP conc. 1~5 mg/ml
  Solubility: Soluble
[4]; 1% PEG12, SPAPP conc. 1~5 mg/ml
  Solubility: Soluble
[4]; 1% PEG24, SPAPP conc. 1~5 mg/ml
  Solubility: Soluble
[4]; 1% PEG60 docesylether, SPAPP conc. 1~5 mg/ml
  Solubility: Soluble
[4]; 1% SDS (anionic surfactant), SPAPP conc. 1~5 mg/ml
  Solubility: Soluble
[4]; 1% TritonX-100, SPAPP conc. 1~5 mg/ml
  Solubility: Soluble
[4]; 1% Tween20, SPAPP conc. 1~5 mg/ml
  Solubility: Soluble
[4]; 1% Tween80, SPAPP conc. 1~5 mg/ml
  Solubility: Soluble
[4]; 1% cholesterol-PEG (NOF CORPORATION NO. CS050), SPAPP conc. 1~5 mg/ml
  Solubility: Soluble
[4]; 1% formic acid (pH 3.0), SPAPP conc. 0.5 mg/ml
  Solubility: Soluble
[4]; 100% DMF, SPAPP conc. 20 mg/ml
  Solubility: Soluble
[4]; 100% DMS0, SPAPP conc. 50 mg/ml
  Solubility: Soluble
[4]; 100% methanol, SPAPP conc. 0.5 mg/ml
  Solubility: Soluble
[4]; Phosphate buffer (PBS) (pH 7)
  Solubility: Insoluble
[4]; Pure water, SPAPP conc. 0.1 mg/ml
  Solubility: Insoluble
[4]; neutral aqueous solutions
  Solubility: completely insoluble
[4]; neutral aqueous solutions containing polar and nonionic surfactants
  Solubility: soluble
[4]; polar organic solvents
  Solubility: soluble
[4]; strongly acidic aqueous solutions
  Solubility: soluble
[5]
  formation of high-molecular-weight aggregates: high-molecular-weight aggregates are formed with any of the surfactants
